The source made the active and inactive calls. No cut-off for these calls is given here.
What was measured:
[1] = Selectivity index, ratio of IC50 for human HS27 cells to IC50 for human NCI-H460 cells
[2] = Selectivity index, ratio of IC50 for human WI-38 cells to IC50 for human OVCAR-3 cells
[3] = Selectivity index, ratio of IC50 for human WI-38 cells to IC50 for human K562 cells; type: toxicity; details: WI-38 cells and K562 cells, read-out: Ratio IC50
[4] = Selectivity index, ratio of IC50 for human HS27 cells to IC50 for human HT-29 cells
HepG2 = test: cells; details: Homo sapiens, HepG2, 48 h
Description: Antiproliferative activity against human HepG2 cells assessed as cell growth inhibition measured after 48 hrs by MTT assay

Hep 3B2 [5] = test: Cell cycle arrest in human Hep3B cells assessed as upregulation of cyclin B1 expression at 3.38 uM measured after 48 hrs by Western blot analysis; type: functional, cell-based
OVCAR-4 = test: Antiproliferative activity against human OVCAR-4 cells assessed as cell growth inhibition; type: functional
DU-145 = test: Antiproliferative activity against human DU-145 cells assessed as cell growth inhibition; type: functional
SW-620 = test: Antiproliferative activity against human SW-620 cells assessed as cell growth inhibition; type: functional
MOLT-4 = test: Antiproliferative activity against human MOLT-4 cells assessed as cell growth inhibition; type: functional
[6] = Selectivity index, ratio of IC50 for human WI-38 cells to IC50 for human SNB-75 cells
[7] = Selectivity index, ratio of IC50 for human HS27 cells to IC50 for human A549 cells
[8] = Selectivity index, ratio of IC50 for human WI-38 cells to IC50 for human MDA-MB-435 cells
SN12C = test: Antiproliferative activity against human SN12C cells assessed as cell growth inhibition; type: functional
SF-295 = test: Antiproliferative activity against human SF-295 cells assessed as cell growth inhibition; type: functional
[9] = Selectivity index, ratio of IC50 for human HS27 cells to IC50 for human MDA-MB-435 cells
[10] = Selectivity index, ratio of IC50 for human WI-38 cells to IC50 for human SW-620 cells
[11] = Selectivity index, ratio of IC50 for human WI-38 cells to IC50 for human SN12C cells
A549 = test: Antiproliferative activity against human A549 cells assessed as cell growth inhibition; type: functional
[12] = Selectivity index, ratio of IC50 for human HS27 cells to IC50 for human HCT-116 cells
OVCAR-3 = test: Antiproliferative activity against human OVCAR-3 cells assessed as cell growth inhibition; type: functional
[13] = Selectivity index, ratio of IC50 for human WI-38 cells to IC50 for human Malme-3M cells
Hep 3B2 [14] = test: Induction of apoptosis in human Hep3B cells assessed as increase in cleaved caspase-3 expression at 3.38 uM measured after 48 hrs by Western blot analysis relative to control; type: functional
[15] = Cytotoxicity against human HS27 cells assessed as reduction in cell growth measured after 48 hrs by MTT assay; type: toxicity, cell-based
[16] = Selectivity index, ratio of IC50 for human HS27 cells to IC50 for human COLO 205 cells
M14 = test: Antiproliferative activity against human M14 cells assessed as cell growth inhibition; type: functional
Hep 3B2 [17] = test: Induction of apoptosis in human Hep3B cells assessed as increase in cleaved PARP expression measured after 48 hrs by Western blot analysis; type: functional, cell-based
[18] = Selectivity index, ratio of IC50 for human HS27 cells to IC50 for human SR cells
MDA-MB-435 = test: Antiproliferative activity against human MDA-MB-435 cells assessed as cell growth inhibition; type: functional
RXF 393 = test: Antiproliferative activity against human RXF 393 cells assessed as cell growth inhibition; type: functional
[19] = Selectivity index, ratio of IC50 for human WI-38 cells to IC50 for human HCT-15 cells
MCF7 = test: Antiproliferative activity against human MCF7 cells assessed as cell growth inhibition; type: functional
[20] = Selectivity index, ratio of IC50 for human HS27 cells to IC50 for human DU-145 cells
CAKI-1 = test: Antiproliferative activity against human CAKI-1 cells assessed as cell growth inhibition; type: functional
[21] = Selectivity index, ratio of IC50 for human HS27 cells to IC50 for human SF-539 cells
[22] = Selectivity index, ratio of IC50 for human HS27 cells to IC50 for human RXF 393 cells
[23] = Selectivity index, ratio of IC50 for human HS27 cells to IC50 for human SK-MEL-28 cells
[24] = Selectivity index, ratio of IC50 for human HS27 cells to IC50 for human M14 cells
[25] = Selectivity index, ratio of IC50 for human WI-38 cells to IC50 for human DU-145 cells
HCT-15 = test: Antiproliferative activity against human HCT-15 cells assessed as cell growth inhibition; type: functional
[26] = Selectivity index, ratio of IC50 for human HS27 cells to IC50 for human LOX IMVI cells
Hep 3B2 [27] = test: Cell cycle arrest in human Hep3B cells assessed as downregulation of cyclin D1 expression at 3.38 uM measured after 48 hrs by Western blot analysis; type: functional, cell-based
Hs-578T = test: Antiproliferative activity against human Hs-578T cells assessed as cell growth inhibition; type: functional
Hep 3B2 [28] = test: Induction of apoptosis in human Hep3B cells assessed as increase in cleaved PARP expression at 3.38 uM measured after 48 hrs by Western blot analysis relative to control; type: functional
HT-29 = test: Antiproliferative activity against human HT-29 cells assessed as cell growth inhibition; type: functional
[29] = Selectivity index, ratio of IC50 for human HS27 cells to IC50 for human MOLT-4 cells
[30] = Selectivity index, ratio of IC50 for human WI-38 cells to IC50 for human MDA-MB-468 cells; type: toxicity; details: WI-38 cells and MDA-MB-468 cells, read-out: Ratio IC50
[31] = Cytotoxicity against human WI-38 cells assessed as reduction in cell growth measured after 48 hrs by MTT assay; type: toxicity, cell-based
[32] = Selectivity index, ratio of IC50 for human WI-38 cells to IC50 for human CCRF-CEM cells; type: toxicity; details: WI-38 cells and CCRF-CEM cells, read-out: Ratio IC50

CCN1CCN(c2ccc(NC(=O)Nc3ccc(-c4cc(C(=O)NC(C)C)c5ncccc5n4)cc3)cc2C(F)(F)F)CC1
Ratio IC50 [1]: 3.32
Ratio IC50 [2]: 5.89
selectivity ratio [3]: 15.4
Ratio IC50 [4]: 9.77
IC50 (HepG2): 460 nM
Activity (Hep 3B2 [5]): Active
GI50 (OVCAR-4): 880 nM
TGI (OVCAR-4): 2450 nM
GI50 (DU-145): 750 nM
TGI (DU-145): 1580 nM
GI50 (SW-620): 640 nM
TGI (SW-620): 1260 nM
TGI (MOLT-4): 30.6 µM
Ratio IC50 [6]: 8.71
Ratio IC50 [7]: 3.32
Ratio IC50 [8]: 8.62
GI50 (SN12C): 670 nM
TGI (SN12C): 1380 nM
GI50 (SF-295): 580 nM
TGI (SF-295): 1140 nM
Ratio IC50 [9]: 4.47
Ratio IC50 [10]: 18.84
Ratio IC50 [11]: 10.52
TGI (A549): 5.77 µM
Ratio IC50 [12]: 9.77
GI50 (OVCAR-3): 640 nM
TGI (OVCAR-3): 1360 nM
Ratio IC50 [13]: 8.62
fold change (FC) (Hep 3B2 [14]): 473.5
IC50 at 48 h [15]: 8.4 µM
Ratio IC50 [16]: 9.77
GI50 (M14): 720 nM
TGI (M14): 1900 nM
Activity (Hep 3B2 [17]): Dose-Dependent Effect
Ratio IC50 [18]: 8
GI50 (MDA-MB-435): 650 nM
TGI (MDA-MB-435): 1310 nM
GI50 (RXF 393): 650 nM
TGI (RXF 393): 1730 nM
Ratio IC50 [19]: 18.84
GI50 (MCF7): 630 nM
TGI (MCF7): 1500 nM
Ratio IC50 [20]: 11.2
GI50 (CAKI-1): 800 nM
TGI (CAKI-1): 2080 nM
Ratio IC50 [21]: 4.52
Ratio IC50 [22]: 5.45
Ratio IC50 [23]: 4.47
Ratio IC50 [24]: 4.47
Ratio IC50 [25]: 21.6
GI50 (HCT-15): 670 nM
TGI (HCT-15): 1350 nM
Ratio IC50 [26]: 4.47
Activity (Hep 3B2 [27]): Active
GI50 (Hs-578T): 880 nM
TGI (Hs-578T): 3.45 µM
fold change (FC) (Hep 3B2 [28]): 27
GI50 (HT-29): 670 nM
TGI (HT-29): 1320 nM
Ratio IC50 [29]: 8
selectivity ratio [30]: 10.1
IC50 at 48 h [31]: 16.2 µM
selectivity ratio [32]: 15.4

From ChEMBL document CHEMBL5584237, “Design, synthesis, biological evaluation, and in silico studies of novel pyridopyridine derivatives as anticancer candidates targeting FMS kinase” (Eur J Med Chem, 2024)
